Target: T1, hROMK (hKir1.1) (Homo sapiens, UniProt P48048)
T1 construct: expressed in transfected cells
T1 sequence (P48048 1-391): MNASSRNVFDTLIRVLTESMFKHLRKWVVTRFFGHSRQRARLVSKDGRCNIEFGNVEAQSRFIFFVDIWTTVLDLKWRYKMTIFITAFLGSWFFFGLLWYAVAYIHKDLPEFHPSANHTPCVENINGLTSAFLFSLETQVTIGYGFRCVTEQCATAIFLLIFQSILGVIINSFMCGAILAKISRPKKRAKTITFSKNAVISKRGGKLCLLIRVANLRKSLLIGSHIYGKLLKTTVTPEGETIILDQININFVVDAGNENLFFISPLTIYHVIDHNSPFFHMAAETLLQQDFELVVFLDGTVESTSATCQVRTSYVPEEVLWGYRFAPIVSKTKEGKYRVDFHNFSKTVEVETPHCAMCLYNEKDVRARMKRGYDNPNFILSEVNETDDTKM
Assay: Thallium Flux Assay (FluxOR, FLIPR-Tetra)
Format: cell-based
Settings: HEK293 cells stably expressing hROMK; potency ranges
Protocol: Several assays may be used to measure functional inhibition of the ROMK channel by compounds of the instant invention. One primary assay that can be used is a functional ^86Rb^+ efflux assay that measures the ability of ROMK to permeate ^86Rb^+, in the absence or presence of test compound. Under control conditions, cells loaded with ^86Rb^+ and incubated in Rb^+-free medium display a time-dependent efflux of the isotope, the rate of which depends on number of functional channels. When cells are incubated in the presence of a channel inhibitor, efflux of ^86Rb^+ is prevented in a concentration-dependent manner, and IC50 values of inhibition by compounds can be accurately determined. This assay has been established with cell lines expressing either human, rat or dog ROMK channels, and can operate in 96- or 384-well format. Importantly, the human, rat, and dog ^86Rb^+ efflux assays can be carried out in the presence of up to 100% serum allowing, therefore, an accurate estimation of the effect of protein binding on the inhibitory activity of compounds of interest. Another ROMK functional assay makes use of the ability of thallium to permeate through open ROMK channels and increase the fluorescence of a dye previously loaded into the cells. Under control conditions, cells loaded with dye and exposed to thallium-containing medium display a time-dependent increase in fluorescence, the rate of which depends on number of functional channels. When cells are incubated in the presence of a channel inhibitor, the increase in fluorescence is attenuated in a concentration-dependent manner, and IC50 values of inhibition by compounds can be accurately determined. This assay has been established with cell lines expressing either human, or rat ROMK channels, and operates in 384-well format. Another assay for evaluation of the compounds of the instant invention and for evaluation of mechanism of action of compounds of Formula I relies on the measurement of the electrical current that is generated as potassium permeates through the channel. For these electrophysiological experiments, three different platforms, IonWorks, QPatch, or manual patch clamp, are used, depending on the experimental protocol under consideration. IonWorks operates in a 384-well format and allows accurate determination of IC50 values for inhibitors.
HEK293 cells stably expressing hROMK (hKir1.1) were grown at 37° C. in a 10% CO2 humidified incubator in complete growth media: Dulbecco's Modified Eagle Medium supplemented with non-essential amino acids, Penicillin/Streptomycin/Glutamine, G418 and FBS. At >80% confluency, media was aspirated from the flask and rinsed with 10 ml Calcium/Magnesium-free PBS. 5 ml of 1× trypsin (prepared in Ca/Mg Free PBS) was added to T-225 flask and flask returned to 37° C./CO2 incubator for 2-3 minutes. To dislodge the cell, the side of the flask was gently banged by hand. Cells were completely triturated and then transferred to 25 ml complete media, and centrifuged at 1,500 rpm for 6 min followed by resuspension in complete growth media and cell concentration determined. For typical re-seeding, 4E6 cells/T-225 flask attained >80% confluency in 4 days. Under ideal growth conditions and appropriate tissue culture practices, this cell line was stable for 40-45 passages.
FluxOR™ Kit Components (Invitrogen F10017)
• FluxOR™ Reagent (Component A) • FluxOR™ Assay Buffer (Component B)—10× Concentrate • PowerLoad™ Concentrate (Component C)—100× Concentrate • Probenecid (Component D)—Lyophilized sample was kept at −20° C. Water soluble, 100× after solubilization in 1 ml water. Store at 4° C. • FluxOR™ Chloride-free Buffer (Component E)—5× Concentrate • Potassium sulfate (K2SO4) Concentrate (Component F)—125 mM in water. Stored at 4° C. • Thallium sulfate (Tl2SO4) Concentrate (Component G)—50 mM in water. […]

| IC50 | SMILES |
| --- | --- |
| ≤ 100 nM | Cc1c([C@@H](O)CN2CCC(CS(=O)(=O)c3ccc4c(c3)CCOC4=O)CC2)ccc2c1COC2=O [Example 109, 6-[({1-[(2R)-2-Hydroxy-2-(4-methyl-1-oxo-1,3-dihydro-2-benzofuran-5-yl)ethyl]piperidin-4-yl}methyl)sulfonyl]-3,4-dihydro-1H-isochromen-1-one] |
| ≤ 100 nM | Cc1c([C@@H](O)CN2CCC(Nc3ccc(C#N)cn3)CC2)ccc2c1COC2=O [Example 111, (R)-6-(1-(2-Hydroxy-2-(4-methyl-1-oxo-1,3-dihydroisobenzofuran-5-yl)ethyl)piperidin-4-ylamino)nicotinonitrile] |
| ≤ 100 nM | Cc1c([C@@H](O)CN2CCC(C[S+]([O-])c3ccc4c(c3C)COC4=O)CC2)ccc2c1COC2=O (stereo partly drawn) [Example 96, 5-[({1-[(2R)-2-hydroxy-2-(4-methyl-1-oxo-1,3-dihydro-2-benzofuran-5-yl)ethyl]piperidin-4-yl}methyl)sulfinyl]-4-methyl-2-benzofuran-1(3H)-one] |
| ≤ 100 nM | Cc1c([C@@H](O)CN2CCC(C)(COc3ccc(C#N)cn3)CC2)ccc2c1COC2=O [Example 107] |
| ≤ 100 nM | Cc1c(OCC2CCN(C[C@H](O)c3ccc4c(c3C)COC4=O)CC2)ccc2c1COC2=O [Example 95, 5-({1-[(2R)-2-Hydroxy-2-(4-methyl-1-oxo-1,3-dihydro-2-benzofuran-5-yl)ethyl]piperidin-4-yl}methoxy)-4-methyl-2-benzofuran-1(3H)-one] |

The remaining lines, values behind:

| SMILES | IC50 |
| --- | --- |
| Cc1c([C@@H](O)CN2CCC(CSc3ccc(C#N)cn3)CC2)ccc2c1COC2=O [Example 100, 6-[({1-[(2R)-2-Hydroxy-2-(4-methyl-1-oxo-1,3-dihydro-2-benzofuran-5-yl)ethyl]piperidin-4-yl}methyl)sulfanyl]pyridine-3-carbonitrile] | ≤ 100 nM |
| Cc1c(C(O)CC2CCN(C(=O)Cc3ccc(-n4cnnn4)nc3)CC2)ccc2c1COC2=O (racemic) [Example 110, 5-[1-Hydroxy-2-(1-{[6-(1H-tetrazol-1-yl)pyridin-3-yl]acetyl}piperidin-4-yl)ethyl]-4-methyl-2-benzofuran-1(3H)-one] | ≤ 100 nM |
| Cc1c([C@@H](O)CN2CCC(C[S+]([O-])c3ccc4c(c3)CCOC4=O)CC2)ccc2c1COC2=O (stereo partly drawn) [Example 104, 6-[({1-[(2R)-2-Hydroxy-2-(4-methyl-1-oxo-1,3-dihydro-2-benzofuran-5-yl)ethyl]piperidin-4-yl}methyl)sulfinyl]-3,4-dihydro-1H-isochromen-1-one] | ≤ 100 nM |
| Cc1c([C@@H](O)CN2CCC(CN(C)c3ccc(C#N)cn3)CC2)ccc2c1COC2=O [Example 93, 6-[({1-[(2R)-2-Hydroxy-2-(4-methyl-1-oxo-1,3-dihydro-2-benzofuran-5-yl)ethyl]piperidin-4-yl}methyl)(methyl)amino]pyridine-3-carbonitrile] | ≤ 200 nM |
| Cc1c([C@@H](O)CN2CCC(F)(COc3ccc(C#N)cn3)CC2)ccc2c1COC2=O [Example 102, 6-({4-Fluoro-1-[(2R)-2-hydroxy-2-(4-methyl-1-oxo-1,3-dihydro-2-benzofuran-5-yl)ethyl]piperidin-4-yl}methoxy)pyridine-3-carbonitrile] | ≤ 200 nM |
| Cc1c([C@@H](O)CN2CCC(CSc3ccc4c(c3)CCOC4=O)CC2)ccc2c1COC2=O [Example 103, 6-[({1-[(2R)-2-Hydroxy-2-(4-methyl-1-oxo-1,3-dihydro-2-benzofuran-5-yl)ethyl]piperidin-4-yl}methyl)sulfanyl]-3,4-dihydro-1H-isochromen-1-one] | ≤ 200 nM |
| Cc1c([C@@H](O)CN2CC3C(COc4ccc(C#N)cn4)C3C2)ccc2c1COC2=O (stereo partly drawn) [Example 106, 6-({3-[(2R)-2-Hydroxy-2-(4-methyl-1-oxo-1,3-dihydro-2-benzofuran-5-yl)ethyl]-3-azabicyclo[3.1.0]hex-6-yl}methoxy)pyridine-3-carbonitrile] | ≤ 100 nM |
